Data: US20260083851A1 (AVILAR THERAPEUTICS, INC., priority 2022, published 2026)
Read-outs that look alike come from different tables or passages of the source.

Biological target: T1, ASGP receptor (biotinylated ASGPR) (Homo sapiens, UniProt P07306)
T1 construct: biotin (biotinylated)
T1 sequence (P07306 1-291): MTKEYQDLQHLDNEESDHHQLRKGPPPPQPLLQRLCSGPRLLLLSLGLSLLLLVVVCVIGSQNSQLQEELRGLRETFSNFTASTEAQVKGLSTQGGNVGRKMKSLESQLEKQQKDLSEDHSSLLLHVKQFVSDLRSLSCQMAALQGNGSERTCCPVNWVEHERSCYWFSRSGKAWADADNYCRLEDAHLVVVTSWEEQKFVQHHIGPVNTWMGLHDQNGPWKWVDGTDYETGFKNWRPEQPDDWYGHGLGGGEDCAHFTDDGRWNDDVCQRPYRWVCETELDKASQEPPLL
Type: binding
Conditions: SPR, Biacore 8K, 25° C., Table 1A, read-out: ASGPR KD

SMILES	Kd [µM]	Kd (numeric bound) [µM]
O=C(O)c1ccc(N2CCC(CN3CCN(C[C@H]4OC[C@H](Nc5cncc(C(F)(F)F)n5)[C@@H](O)[C@H]4O)CC3)CC2)nn1 [A16, 6-(4-((4-(((2R,3R,4R,5S)-3,4-dihydroxy-5-((6-(trifluoromethyl)pyrazin-2-yl)amino)tetrahydro-2H-pyran-2-yl)methyl)piperazin-1-yl)methyl)piperidin-1-yl)pyridazine-3-carboxylic acid]	< 10	
O=C(NC[C@H]1OC[C@H](Nc2cncc(C(F)(F)F)n2)[C@@H](O)[C@H]1O)c1ccc2ncncc2c1 [A17, N-(((2R,3R,4R,5S)-3,4-dihydroxy-5-((6-(trifluoromethyl)pyrazin-2-yl)amino)tetrahydro-2H-pyran-2-yl)methyl)quinazoline-6-carboxamide]	< 10	
O[C@@H]1[C@H](O)[C@@H](Nc2cncc(C(F)(F)F)n2)CO[C@@H]1CNc1ncccn1 [A19, (2R,3R,4R,5S)-2-((pyrimidin-2-ylamino)methyl)-5-((6-(trifluoromethyl)pyrazin-2-yl)amino)tetrahydro-2H-pyran-3,4-diol]	< 10	
N#CC[C@H]1OC[C@H](Nc2cncc(C(F)(F)F)n2)[C@@H](O)[C@H]1O [A21, 2-((2R,3R,4R,5S)-3,4-dihydroxy-5-((6-(trifluoromethyl)pyrazin-2-yl)amino)tetrahydro-2H-pyran-2-yl)acetonitrile]	< 10	
O=C(O)CNC(COCCC(=O)NC[C@H]1OC[C@H](Nc2cncc(C(F)(F)F)n2)[C@@H](O)[C@H]1O)COCCC(=O)NC[C@H]1OC[C@H](Nc2cncc(C(F)(F)F)n2)[C@@H](O)[C@H]1O [A23, (1,15-bis((2R,3R,4R,5S)-3,4-dihydroxy-5-((6-(trifluoromethyl)pyrazin-2-yl)amino)tetrahydro-2H-pyran-2-yl)-3,13-dioxo-6,10-dioxa-2,14-diazapentadecan-8-yl)glycine]		> 20
O=C(NC[C@H]1OC[C@H](Nc2cncc(C(F)(F)F)n2)[C@@H](O)[C@H]1O)c1cccc(F)c1 [A24, N-(((2R,3R,4R,5S)-3,4-dihydroxy-5-((6-(trifluoromethyl)pyrazin-2-yl)amino)tetrahydro-2H-pyran-2-yl)methyl)-3-fluorobenzamide]	< 10	
O=C(O)CNC[C@H]1OC[C@H](Nc2cncc(C(F)(F)F)n2)[C@@H](O)[C@H]1O [A26, (((2R,3R,4R,5S)-3,4-dihydroxy-5-((6-(trifluoromethyl)pyrazin-2-yl)amino)tetrahydro-2H-pyran-2-yl)methyl)glycine]	< 10	
O=C(O)c1ccc(N2CCC(CN3CCN(C[C@H]4OC[C@H](Nc5cncc(C(F)(F)F)n5)[C@@H](O)[C@H]4O)CC3)CC2)cc1 [A31, 4-(4-((4-(((2R,3R,4R,5S)-3,4-dihydroxy-5-((6-(trifluoromethyl)pyrazin-2-yl)amino)tetrahydro-2H-pyran-2-yl)methyl)piperazin-1-yl)methyl)piperidin-1-yl)benzoic acid]	< 10	
O=C(O)COCCOCCOCC(=O)NC[C@H]1OC[C@H](Nc2cncc(C(F)(F)F)n2)[C@@H](O)[C@H]1O [A33]	< 10	

Results, then the compound that gave them:

Kd [µM]	Kd (numeric bound) [µM]	SMILES
< 10		O=C(NC[C@H]1OC[C@H](Nc2cncc(C(F)(F)F)n2)[C@@H](O)[C@H]1O)c1cc2ccccc2[nH]1 [A14, N-(((2R,3R,4R,5S)-3,4-dihydroxy-5-((6-(trifluoromethyl)pyrazin-2-yl)amino)tetrahydro-2H-pyran-2-yl)methyl)-1H-indole-2-carboxamide]
< 10		O=C(NC[C@H]1OC[C@H](Nc2cncc(C(F)(F)F)n2)[C@@H](O)[C@H]1O)C12CC3CC(CC(C3)C1)C2 [A15, (1S,3S)—N-(((2R,3R,4R,5S)-3,4-dihydroxy-5-((6-(trifluoromethyl)pyrazin-2-yl)amino)tetrahydro-2H-pyran-2-yl)methyl)adamantane-1-carboxamide]
< 10		O=C(NC[C@H]1OC[C@H](Nc2cncc(C(F)(F)F)n2)[C@@H](O)[C@H]1O)C1C[C@@H]2CC[C@H]1C2 (stereo partly drawn) [A18, (1S,4R)—N-(((2R,3R,4R,5S)-3,4-dihydroxy-5-((6-(trifluoromethyl)pyrazin-2-yl)amino)tetrahydro-2H-pyran-2-yl)methyl)bicyclo[2.2.1]heptane-2-carboxamide]
< 10		O=C(NC[C@H]1OC[C@H](Nc2cncc(C(F)(F)F)n2)[C@@H](O)[C@H]1O)c1cnccn1 [A20, N-(((2R,3R,4R,5S)-3,4-dihydroxy-5-((6-(trifluoromethyl)pyrazin-2-yl)amino)tetrahydro-2H-pyran-2-yl)methyl)pyrazine-2-carboxamide]
< 10		O=C(NC[C@H]1OC[C@H](Nc2cncc(C(F)(F)F)n2)[C@@H](O)[C@H]1O)c1cnc[nH]1 [A22, N-(((2R,3R,4R,5S)-3,4-dihydroxy-5-((6-(trifluoromethyl)pyrazin-2-yl)amino)tetrahydro-2H-pyran-2-yl)methyl)-1H-imidazole-5-carboxamide]
< 10		O=C(NC[C@H]1OC[C@H](Nc2cncc(C(F)(F)F)n2)[C@@H](O)[C@H]1O)c1cncnc1 [A25, N-(((2R,3R,4R,5S)-3,4-dihydroxy-5-((6-(trifluoromethyl)pyrazin-2-yl)amino)tetrahydro-2H-pyran-2-yl)methyl)pyrimidine-5-carboxamide]
< 10		O=C(NC[C@H]1OC[C@H](Nc2cncc(C(F)(F)F)n2)[C@@H](O)[C@H]1O)c1ccnnc1 [A27, N-(((2R,3R,4R,5S)-3,4-dihydroxy-5-((6-(trifluoromethyl)pyrazin-2-yl)amino)tetrahydro-2H-pyran-2-yl)methyl)pyridazine-4-carboxamide]
< 10		O[C@@H]1[C@H](O)[C@@H](Nc2cncc(C(F)(F)F)n2)CO[C@@H]1CNc1cccnc1 [A28, (2R,3R,4R,5S)-2-((pyridin-3-ylamino)methyl)-5-((6-(trifluoromethyl)pyrazin-2-yl)amino)tetrahydro-2H-pyran-3,4-diol]
< 10		O=C(NC[C@H]1OC[C@H](Nc2cncc(C(F)(F)F)n2)[C@@H](O)[C@H]1O)c1cc(C(F)(F)F)n[nH]1 [A29, N-(((2R,3R,4R,5S)-3,4-dihydroxy-5-((6-(trifluoromethyl)pyrazin-2-yl)amino)tetrahydro-2H-pyran-2-yl)methyl)-3-(trifluoromethyl)-1H-pyrazole-5-carboxamide]
< 10		O=C(O)COCC(=O)NC[C@H]1OC[C@H](Nc2cncc(C(F)(F)F)n2)[C@@H](O)[C@H]1O [A30, 2-(2-((((2R,3R,4R,5S)-3,4-dihydroxy-5-((6-(trifluoromethyl)pyrazin-2-yl)amino)tetrahydro-2H-pyran-2-yl)methyl)amino)-2-oxoethoxy)acetic acid]
< 10		O=C(O)C1CCC(C(=O)NC[C@H]2OC[C@H](Nc3cncc(C(F)(F)F)n3)[C@@H](O)[C@H]2O)CC1 (stereo partly drawn) [A32, 4-((((2R,3R,4R,5S)-3,4-dihydroxy-5-((6-(trifluoromethyl)pyrazin-2-yl)amino)tetrahydro-2H-pyran-2-yl)methyl)carbamoyl)cyclohexane-1-carboxylic acid]
< 10		O=C(O)c1ccc(C(=O)NC[C@H]2OC[C@H](Nc3cncc(C(F)(F)F)n3)[C@@H](O)[C@H]2O)cc1 [A34, 4-((((2R,3R,4R,5S)-3,4-dihydroxy-5-((6-(trifluoromethyl)pyrazin-2-yl)amino)tetrahydro-2H-pyran-2-yl)methyl)carbamoyl)benzoic acid]
